The target of one series is MCL-1 (Homo sapiens, UniProt Q07820). As to the kind of experiment: Protein-protein interaction assay MCL-1/Noxa BH3 peptide (MCL-1 assay), TR-FRET. Format: binding. To be noted: MBP-MCL-1 / Noxa BH3-derived peptide, median. A digest of the protocol:
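MBP-MCL-1 (1 nM final) was preincubated 10 min at 22 °C with compounds (11 concentrations, 0.1 nM–20 μM, duplicates) in Tris pH 7 buffer with NaCl, KF, Tween-20, DTT and BGG. After 1 h at 22 °C in the dark plus overnight at 4 °C, anti-MBP Eu-cryptate/streptavidin-XL665 TR-FRET was read; IC50 came from a 4-parameter fit.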
On the technique in general: TR-FRET usually uses a lanthanide donor and a delayed reading to cut background.

The subject of series [1] is SUDHL5. As to the kind of experiment: Induction of caspase-3/7 activity (Caspase-Glo 3/7), SUDHL5. It is filed as cell-based. As to conditions: caspase-3/7 induction, SUDHL5 cells, 3 h treatment, median. A digest of the protocol: (§1)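 Caspase-Glo 3/7 luminescence measured after 3 h compound exposure at 37 °C in SUDHL10 and SUDHL5 cells. EC50 values come from background-corrected signals, with curve bottom set to 1 and plateau set to maximal induction by the reference compound.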

Series [2] concerns SUDHL10. As to the kind of experiment: Induction of caspase-3/7 activity (Caspase-Glo 3/7), SUDHL10. As to conditions: caspase-3/7 induction, SUDHL10 cells, 3 h treatment, median. Format: cell-based. The method in brief:
as §1

The subject of series [3] is SUDHL5. As to the kind of experiment: Anti-proliferative effect (CellTiter-Glo, 72 h), SUDHL5. It is filed as cell-based. To be noted: SUDHL5 cells, antiproliferation, median, read-out: Antiproli SUDHL5 [M] (median). A digest of the protocol:
(§2)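 Anti-proliferative activity is derived from ATP-based luminescence (CellTiter-Glo) in cells exposed to compound for 72 h at 37 °C, set against a time zero plate read at seeding.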

For series [4], the system named is SUDHL10. As to the kind of experiment: Anti-proliferative effect (CellTiter-Glo, 72 h), SUDHL10. It is filed as cell-based. To be noted: SUDHL10 cells, antiproliferation, median, read-out: Antiproli SUDHL10 [M] (median). A digest of the protocol: as §2
Background: In ATP-based viability assays light output follows the ATP content of the culture.

The subject of the next series is A2780. As to the kind of experiment: Anti-proliferative effect (CellTiter-Glo, 72 h), A2780. Format: cell-based. To be noted: A2780 cells, median, read-out: IC50 antiproliferation assay A2780 [M] (median). A digest of the protocol: as §2
For series [5], the system named is SUDHL5. As to the kind of experiment: Induction of cytotoxicity (CellTiter-Glo, 5 h), SUDHL5.
For series [6], the system named is SUDHL10. As to the kind of experiment: Induction of cytotoxicity (CellTiter-Glo, 5 h), SUDHL10.
Where [7] appears, read: Homo sapiens, SU-DHL-5, 72 h, 72 h incubation.
[8] abbreviates: read-out: Cytotox SUDHL5 [M] (median), SUDHL5 cells, cytotoxicity induction, CellTiter-Glo, 5 h incubation, median.
[9] abbreviates: read-out: Cytotox SUDHL10 [M] (median), SUDHL10 cells, cytotoxicity induction, CellTiter-Glo, 5 h incubation, median.
Where [10] appears, read: Homo sapiens, SU-DHL-5, 72 h, 72 h.
The mark [11] stands for this setting: Homo sapiens, SU-DHL10, 72 h, 72 h.
[12] abbreviates: Homo sapiens, SU-DHL-5, 5 h, read-out: Cytotox SUDHL5 [M] (median), SUDHL5 cells, cytotoxicity induction, CellTiter-Glo, 5 h, median.
[13] abbreviates: Homo sapiens, SU-DHL10, 5 h, read-out: Cytotox SUDHL10 [M] (median), SUDHL10 cells, cytotoxicity induction, CellTiter-Glo, 5 h, median.

Molecules are shown by their SMILES. Where “and” joins values, the source holds several entries; their conditions need not be identical. Equal entries are not always repeated. Structures can show the parent of a compound that is named as a salt. Where two headings read alike, the source gives them in different places.

Sequence of MCL-1 (Q07820 whole entry): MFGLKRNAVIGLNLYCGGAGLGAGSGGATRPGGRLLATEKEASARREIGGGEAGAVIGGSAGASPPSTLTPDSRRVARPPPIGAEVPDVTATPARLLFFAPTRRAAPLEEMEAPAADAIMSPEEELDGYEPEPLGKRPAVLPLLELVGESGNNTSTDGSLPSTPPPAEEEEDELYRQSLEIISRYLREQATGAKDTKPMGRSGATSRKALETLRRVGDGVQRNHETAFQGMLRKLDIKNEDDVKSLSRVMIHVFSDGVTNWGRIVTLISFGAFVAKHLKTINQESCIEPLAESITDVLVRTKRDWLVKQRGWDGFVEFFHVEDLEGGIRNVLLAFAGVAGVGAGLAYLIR

As usually defined, the EC50 is the concentration needed to bring the measured effect to its halfway point. A higher EC50 goes with a less potent agent. As for `COCc1nn(C)c2c1-c1cccc3c(CCCOc4cccc5ccccc45)c(C(=O)O)n(c13)CCCCCOC2` (single isomer, unassigned; enantiomer 1) [Example 178, 3-(methoxymethyl)-1-methyl-7-[3-(naphthalen-1-yloxy)propyl]-1,11,12,13,14,16-hexahydro-1 OH-pyrazolo[3′,4′:3,4][1,7]oxazacyclododecino[5,6,7-h]indole-8-carboxylic acid-N-ethylethanamine Salt (Enantiomer 1)], the IC50 was 18.1 nM at MCL-1; 9.37e-06 M with SUDHL5 [3] (setting [7]); > 3.3e-05 M and 2.21e-05 M with SUDHL10 [4] (72 h incubation); greater than 3.3e-05 M in the series with A2780 (Homo sapiens, A2780, 72 h); 1.3e-05 M with SUDHL5 [5] (Homo sapiens, SU-DHL-5, 5 h, read-out: Cytotox SUDHL5 [M] (median), SUDHL5 cells, cytotoxicity induction, CellTiter-Glo, 5 h incubation, median); greater than 3.3e-05 M in the series on SUDHL10 [6] (Homo sapiens, SU-DHL10, 5 h, read-out: Cytotox SUDHL10 [M] (median), SUDHL10 cells, cytotoxicity induction, CellTiter-Glo, 5 h incubation, median). Moreover, the EC50 in the series on SUDHL5 [1] (Homo sapiens, SU-DHL-5, 3 h) was 12.8 µM; with SUDHL10 [2] (Homo sapiens, SU-DHL10, 3 h), greater than 33 µM; in the series with SUDHL10 [2], 30 µM.
On to `CCCc1nn(C)c2c1-c1c(C)ccc3c(CCCOc4cccc5ccccc45)c(C(=O)O)n(c13)CCCCOC2` (single isomer, unassigned; enantiomer 1) [Example 188, 1,4-dimethyl-7-[3-(naphthalen-1-yloxy)propyl]-3-propyl-1,10,11,12,13,15-hexahydropyrazolo[4′,3′:9,10][1,6]oxazacycloundecino[8,7,6-hi]indole-8-carboxylic acid-N-ethylethanamine Salt (Enantiomer 1)], for which the IC50 came out at 1.46 nM at MCL-1; 3.39e-06 M with SUDHL5 [3] (72 h incubation); 9.83e-06 M in the series on SUDHL10 [4] (72 h incubation); 2.42e-05 M in the series on A2780 (Homo sapiens, A2780, 72 h); 2.95e-06 M in the series with SUDHL5 [5] (setting [8]); 6.61e-06 M with SUDHL10 [6] (setting [9]). Further, the values for the EC50 with SUDHL5 [1] and in the series with SUDHL10 [2] were 2.82 µM and 7.76 µM, respectively.
In the case of `Cn1nc2c(c1C(F)(F)F)-c1cccc3c(CCCOc4cccc5ccccc45)c(C(=O)O)n(c13)CCCCOC2` (single isomer, unassigned; enantiomer 1) [Example 194, 2-methyl-7-[3-(naphthalen-1-yloxy)propyl]-3-(trifluoromethyl)-2,10,11,12,13,15-hexahydropyrazolo[4′,3′:9,10][1,6]oxazacycloundecino[8,7,6-hi]indole-8-carboxylic Acid (Enantiomer 1)], the IC50 at MCL-1 was 7.35 nM; in the series on SUDHL5 [3] (setting [7]), 7.95e-06 M; with SUDHL10 [4] (72 h incubation), 6.28e-06 M; with A2780 (Homo sapiens, A2780, 72 h), 1.82e-05 M; in the series with SUDHL5 [5] (setting [8]), 5.46e-06 M; with SUDHL10 [6] (setting [9]), 1.63e-05 M. The EC50 was 5.09 µM in the series with SUDHL5 [1] and 15.1 µM in the series on SUDHL10 [2].
In the case of `CCc1c2c(nn1CCN1CCOCC1)COCCCCn1c(C(=O)O)c(CCCOc3cccc4ccccc34)c3cccc-2c31` (single isomer, unassigned; enantiomer 1) [Example 202, 3-ethyl-2-[2-(morpholin-4-yl)ethyl]-7-[3-(naphthalen-1-yloxy)propyl]-2,10,11,12,13,15-hexahydropyrazolo[4′,3′:9,10][1,6]oxazacycloundecino[8,7,6,6-hi]indole-8-carboxylic Acid (Enantiomer 1)], the IC50 at MCL-1 was 46.2 nM; in the series on SUDHL5 [3] (72 h incubation), 2.52e-05 M; in the series on SUDHL10 [4] (72 h incubation), 1.74e-05 M; with A2780 (Homo sapiens, A2780, 72 h), 3.17e-05 M; in the series on SUDHL5 [5] (setting [8]) it was greater than 3.3e-05 M; with SUDHL10 [6] (setting [9]), 2.87e-05 M. Besides, the EC50 was 30.2 µM with SUDHL5 [1] and greater than 33 µM with SUDHL10 [2].
Regarding `Cn1nc(COc2ccc(NS(C)(=O)=O)cc2)c2c1COCCCCn1c(C(=O)O)c(CCCOc3cccc4ccccc34)c3cccc-2c31` (single isomer, unassigned; enantiomer 1) [Example 322, 1-methyl-3-({4-[((methylsulfonyl)amino]phenoxy}methyl)-7-[3-(naphthalen-1-yloxy)propyl]-1,10,11,12,13,15-hexahydropyrazolo[4′,3′:9,10][1,6]oxazacycloundecino[8,7,6-hi]indole-8-carboxylic Acid-N-ethylethanamine Salt (Enantiomer 1)], the IC50 at MCL-1 was 1080 nM; in the series on SUDHL5 [3] (setting [10]), 2.46e-05 M; in the series with SUDHL10 [4] (setting [11]), 1.9e-05 M; with A2780 (Homo sapiens, A2780, 72 h) it was greater than 3.3e-05 M; in the series on SUDHL5 [5] (setting [12]), greater than 3.3e-05 M; in the series on SUDHL10 [6] (setting [13]), greater than 3.3e-05 M. The EC50 was greater than 33 µM in the series with SUDHL5 [1] (Homo sapiens, SU-DHL-5, 3 h) and greater than 33 µM with SUDHL10 [2] (Homo sapiens, SU-DHL10, 3 h).
Consider `Cn1nc(CN2CCCCC2=O)c2c1COCCCCn1c(C(=O)O)c(CCCOc3cccc4ccccc34)c3cccc-2c31` (single isomer, unassigned; enantiomer 1) [Example 326, 1-methyl-7-[3-(naphthalen-1-yloxy)propyl]-3-[(2-oxopiperidin-1-yl)methyl]-1,10,11,12,13,15-hexahydropyrazolo[4′,3′:9,10][1,6]oxazacycloundecino[8,7,6-hi]indole-carboxylic Acid (Enantiomer 1)], for which the IC50 is 515 nM at MCL-1; 3.18e-05 M with SUDHL5 [3] (setting [10]); 1.14e-05 M in the series with SUDHL10 [4] (setting [11]); greater than 3.3e-05 M with A2780 (Homo sapiens, A2780, 72 h); greater than 3.3e-05 M in the series with SUDHL5 [5] (setting [12]); greater than 3.3e-05 M in the series on SUDHL10 [6] (setting [13]). The EC50 with SUDHL5 [1] (Homo sapiens, SU-DHL-5, 3 h) was greater than 33 µM; with SUDHL10 [2] (Homo sapiens, SU-DHL10, 3 h), greater than 33 µM.
`Cn1nc(CN2CCCC2=O)c2c1COCCCCn1c(C(=O)O)c(CCCOc3cccc4ccccc34)c3cccc-2c31` (single isomer, unassigned; enantiomer 1) [Example 330, 1-methyl-7-[3-(naphthalen-1-yloxy)propyl]-3-[(2-oxopyrrolidin-1-yl)methyl]-1,10,11,12,13,15-hexahydropyrazolo[4′,3′:9,10][1,6]oxazacycloundecino[8,7,6-hi]indole-8-carboxylic Acid (Enantiomer 1)]: the IC50 against MCL-1 is 153 nM; in the series with SUDHL5 [3] (72 h), greater than 3.3e-05 M; in the series on SUDHL10 [4] (72 h), 2.49e-05 M; in the series on A2780, greater than 3.3e-05 M; with SUDHL5 [5] (read-out: Cytotox SUDHL5 [M] (median), SUDHL5 cells, cytotoxicity induction, CellTiter-Glo, 5 h, median) it was greater than 3.3e-05 M; in the series with SUDHL10 [6] (read-out: Cytotox SUDHL10 [M] (median), SUDHL10 cells, cytotoxicity induction, CellTiter-Glo, 5 h, median) it was greater than 3.3e-05 M. In addition, the EC50 in the series on SUDHL5 [1] and with SUDHL10 [2] was greater than 33 µM in each case.
Consider `Cn1nc(CN2CCCCC2)c2c1COCCCCn1c(C(=O)O)c(CCCOc3cccc4ccccc34)c3cccc-2c31` (single isomer, unassigned; enantiomer 1) [Example 333, 1-methyl-7-[3-(naphthalen-1-yloxy)propyl]-3-(piperidin-1-ylmethyl)-1,10,11,12,13,15-hexahydropyrazolo[4′,3′:9,10][1,6]oxazacycloundecino[8,7,6-hi]indole-8-carboxylic Acid (Enantiomer 1)], for which the IC50 against MCL-1 is 1040 nM; in the series on SUDHL5 [3] (setting [10]) it was 8.44e-06 M; in the series on SUDHL10 [4] (setting [11]), 8.22e-06 M; in the series with A2780 (Homo sapiens, A2780, 72 h), 1.67e-05 M; in the series on SUDHL5 [5] (setting [12]), 2.89e-05 M; in the series with SUDHL10 [6] (setting [13]), greater than 3.3e-05 M. In addition, the EC50 with SUDHL5 [1] (Homo sapiens, SU-DHL-5, 3 h) is 17.3 µM; in the series with SUDHL10 [2] (Homo sapiens, SU-DHL10, 3 h), greater than 33 µM.
For `Cn1nc(CN2CCCC2)c2c1COCCCCn1c(C(=O)O)c(CCCOc3cccc4ccccc34)c3cccc-2c31` (single isomer, unassigned; enantiomer 1) [Example 336, 1-methyl-7-[3-(naphthalen-1-yloxy)propyl]-3-(pyrrolidin-1-ylmethyl)-1,10,11,12,13,15-hexahydropyrazolo[4′,3′:9,10][1,6]oxazacycloundecino[8,7,6-hi]indole-8-carboxylic Acid (Enantiomer 1)], the IC50 at MCL-1 was 132 nM; in the series with SUDHL5 [3] (setting [10]) it was greater than 3.3e-05 M; with SUDHL10 [4] (setting [11]) it was greater than 3.3e-05 M; in the series with A2780 (Homo sapiens, A2780, 72 h), greater than 3.3e-05 M; with SUDHL5 [5] (setting [12]), greater than 3.3e-05 M; with SUDHL10 [6] (setting [13]), greater than 3.3e-05 M. In addition, the EC50 was greater than 33 µM in the series on SUDHL5 [1] (Homo sapiens, SU-DHL-5, 3 h) and greater than 33 µM in the series on SUDHL10 [2] (Homo sapiens, SU-DHL10, 3 h).
